Test results as given in BindingDB's records for doi:10.1016/j.bmcl.2009.09.123 (Genomics Institute of The Novartis Research Foundation, 2009).

Legend:
[1] = Inhibition of Tel-fused SRC expressed in mouse BAF3 cells
[2] = Inhibition of Tel-fused LYN expressed in mouse BAF3 cells
[3] = Inhibition of Tel-fused KDR expressed in mouse BAF3 cells
[4] = Inhibition of Tel-fused LCK expressed in mouse BAF3 cells

| SMILES | IC50 [1] [nM] | IC50 [2] [nM] | IC50 [3] [nM] | IC50 [4] [nM] |
| --- | --- | --- | --- | --- |
| Cc1ccc(C(=O)Nc2cccc(C(F)(F)F)c2)cc1Nc1nc2ccccc2n1-c1cc(NCCC#N)ncn1 [3-(1-(6-(2-cyanoethylamino)pyrimidin-4-yl)-1H-benzo[d]imidazol-2-ylamino)-4-methyl-N-(3-(trifluoromethyl)phenyl)benzamide] | 1220 | 468 | 245 | 275 |
| CCN(CC)CCCCNc1cc(-n2c(Nc3cc(C(=O)Nc4cccc(C(F)(F)F)c4)ccc3C)nc3ccccc32)ncn1 [3-(1-(6-(4-(diethylamino)butylamino)pyrimidin-4-yl)-1H-benzo[d]imidazol-2-ylamino)-4-methyl-N-(3-(trifluoromethyl)phenyl)benzamide] |  | 140 | 243 | 52 |
| CCN(CC)CCCCNc1cc(-n2c(Nc3cc(C(=O)Nc4cccc(C)c4)ccc3C)nc3ccccc32)ncn1 [3-(1-(6-(4-(diethylamino)butylamino)pyrimidin-4-yl)-1H-benzo[d]imidazol-2-ylamino)-4-methyl-N-m-tolylbenzamide] | 1060 | 1320 | 1360 | 406 |
| Cc1ccc(C(=O)Nc2cccc(C(F)(F)F)c2)cc1Nc1nc2ccccc2n1-c1cc(NCCCCN(C)C)ncn1 [3-(1-(6-(4-(dimethylamino)butylamino)pyrimidin-4-yl)-1H-benzo[d]imidazol-2-ylamino)-4-methyl-N-(3-(trifluoromethyl)phenyl)benzamide] | 556 | 134 | 249 | 38 |
| Cc1cccc(NC(=O)c2ccc(C)c(Nc3nc4ccccc4n3-c3cc(NCCCCN(C)C)ncn3)c2)c1 [3-(1-(6-(4-(dimethylamino)butylamino)pyrimidin-4-yl)-1H-benzo[d]imidazol-2-ylamino)-4-methyl-N-m-tolylbenzamide] | 1270 | 1380 | 1500 | 531 |
| Cc1ccc(C(=O)Nc2cccc(C(F)(F)F)c2)cc1Nc1nc2ccccc2n1-c1ncnc(N)c1C [3-(1-(6-amino-5-methylpyrimidin-4-yl)-1H-benzo[d]imidazol-2-ylamino)-4-methyl-N-(3-(trifluoromethyl)phenyl)benzamide] | > 10000 | 8010 | 8180 | 4460 |
| Cc1cc(NC(=O)c2ccc(C)c(Nc3nc4ccccc4n3-c3cc(N)ncn3)c2)ccn1 [3-(1-(6-aminopyrimidin-4-yl)-1H-benzo[d]imidazol-2-ylamino)-4-methyl-N-(2-methylpyridin-4-yl)benzamide] | > 10000 | > 10000 | 135 | 702 |
| Cc1cn(-c2cc(NC(=O)c3ccc(C)c(Nc4nc5ccccc5n4-c4cc(N)ncn4)c3)cc(C(F)(F)F)c2)cn1 [3-(1-(6-aminopyrimidin-4-yl)-1H-benzo[d]imidazol-2-ylamino)-4-methyl-N-(3-(4-methyl-1H-imidazol-1-yl)-5-(trifluoromethyl)phenyl)benzamide] | 107 | 28 | 20 | 14 |
| Cc1ccc(C(=O)Nc2cccc(C(F)(F)F)c2)cc1Nc1nc2ccccc2n1-c1cc(N)ncn1 [3-(1-(6-aminopyrimidin-4-yl)-1H-benzo[d]imidazol-2-ylamino)-4-methyl-N-(3-(trifluoromethyl)phenyl)benzamide] | > 10000 | 15 | 55 | 20 |
| Cc1cccc(NC(=O)c2ccc(C)c(Nc3nc4ccccc4n3-c3cc(N)ncn3)c2)c1 [3-(1-(6-aminopyrimidin-4-yl)-1H-benzo[d]imidazol-2-ylamino)-4-methyl-N-m-tolylbenzamide] | 7170 | 1080 | 1020 | 83 |
| Cc1ccc(C(=O)Nc2ccccc2)cc1Nc1nc2ccccc2n1-c1cc(N)ncn1 [3-(1-(6-aminopyrimidin-4-yl)-1H-benzo[d]imidazol-2-ylamino)-4-methyl-N-phenylbenzamide] | 6170 | 5510 | 8820 | 2280 |
| Cc1ccc(C(=O)Nc2cccc(OC(F)F)c2)cc1Nc1nc2ccccc2n1-c1cc(N)ncn1 [3-(1-(6-aminopyrimidin-4-yl)-1H-benzo[d]imidazol-2-ylamino)-N-(3-(difluoromethoxy)phenyl)-4-methylbenzamide] | > 10000 | 100 | 92 | 47 |
| Cc1ccc(C(=O)Nc2cccc(Br)c2)cc1Nc1nc2ccccc2n1-c1cc(N)ncn1 [3-(1-(6-aminopyrimidin-4-yl)-1H-benzo[d]imidazol-2-ylamino)-N-(3-bromophenyl)-4-methylbenzamide] | 5380 | 272 | 464 | 52 |
| Cc1ccc(C(=O)Nc2cccc(C(N)=O)c2)cc1Nc1nc2ccccc2n1-c1cc(N)ncn1 [3-(1-(6-aminopyrimidin-4-yl)-1H-benzo[d]imidazol-2-ylamino)-N-(3-carbamoylphenyl)-4-methylbenzamide] | > 10000 | > 10000 | > 10000 | > 10000 |
| Cc1ccc(C(=O)Nc2cccc(Cl)c2)cc1Nc1nc2ccccc2n1-c1cc(N)ncn1 [3-(1-(6-aminopyrimidin-4-yl)-1H-benzo[d]imidazol-2-ylamino)-N-(3-chlorophenyl)-4-methylbenzamide] | > 10000 | > 10000 | 260 | 76 |
| Cc1ccc(C(=O)Nc2cccc(C(C)C)c2)cc1Nc1nc2ccccc2n1-c1cc(N)ncn1 [3-(1-(6-aminopyrimidin-4-yl)-1H-benzo[d]imidazol-2-ylamino)-N-(3-isopropylphenyl)-4-methylbenzamide] | 21 | 15 | 17 | 7 |
| COc1cccc(NC(=O)c2ccc(C)c(Nc3nc4ccccc4n3-c3cc(N)ncn3)c2)c1 [3-(1-(6-aminopyrimidin-4-yl)-1H-benzo[d]imidazol-2-ylamino)-N-(3-methoxyphenyl)-4-methylbenzamide] | 4390 | 437 | 516 | 157 |
| Cc1ccc(C(=O)Nc2cccc(C(C)(C)C)c2)cc1Nc1nc2ccccc2n1-c1cc(N)ncn1 [3-(1-(6-aminopyrimidin-4-yl)-1H-benzo[d]imidazol-2-ylamino)-N-(3-tert-butylphenyl)-4-methylbenzamide] | 202 | 16 | 52 | 16 |
| Cc1ccc(C(=O)Nc2cccc3cnccc23)cc1Nc1nc2ccccc2n1-c1cc(N)ncn1 [3-(1-(6-aminopyrimidin-4-yl)-1H-benzo[d]imidazol-2-ylamino)-N-(isoquinolin-5-yl)-4-methylbenzamide] | 7610 | 7840 | 10600 | 3240 |
| Cc1ccc(C(=O)Nc2cccc(C(F)(F)F)c2)cc1Nc1nc2ccccc2n1-c1ncnc(NCCCN2CCN(C)CC2)n1 [4-methyl-3-(1-(4-(3-(4-methylpiperazin-1-yl)propylamino)-1,3,5-triazin-2-yl)-1H-benzo[d]imidazol-2-ylamino)-N-(3-(trifluoromethyl)phenyl)benzamide] | 117 | 43 | 133 | 20 |
| COCCNc1cc(-n2c(Nc3cc(NC(=O)c4cccc(C(F)(F)F)c4)ccc3C)nc3ccccc32)ncn1 [N-(3-(1-(6-(2-methoxyethylamino)pyrimidin-4-yl)-1H-benzo[d]imidazol-2-ylamino)-4-methylphenyl)-3-(trifluoromethyl)benzamide] | 606 | 126 | 296 |  |
| CCN(CC)CCCCNc1cc(-n2c(Nc3cc(NC(=O)c4cccc(C(F)(F)F)c4)ccc3C)nc3ccccc32)ncn1 [N-(3-(1-(6-(4-(diethylamino)butylamino)pyrimidin-4-yl)-1H-benzo[d]imidazol-2-ylamino)-4-methylphenyl)-3-(trifluoromethyl)benzamide] |  | 217 | 885 | 41 |
| Cc1ccc(NC(=O)c2cccc(Cl)c2)cc1Nc1nc2ccccc2n1-c1cc(N)ncn1 [N-(3-(1-(6-aminopyrimidin-4-yl)-1H-benzo[d]imidazol-2-ylamino)-4-methylphenyl)-3-chlorobenzamide] | 650 |  | 576 | 84 |
| Cc1ccc(NC(=O)c2ccncc2Cl)cc1Nc1nc2ccccc2n1-c1cc(N)ncn1 [N-(3-(1-(6-aminopyrimidin-4-yl)-1H-benzo[d]imidazol-2-ylamino)-4-methylphenyl)-3-chloroisonicotinamide] | > 10000 | 595 |  | 890 |
| Cc1ccc(NC(=O)c2cc(C(C)(C)C)nn2C)cc1Nc1nc2ccccc2n1-c1cc(N)ncn1 [N-(3-(1-(6-aminopyrimidin-4-yl)-1H-benzo[d]imidazol-2-ylamino)-4-methylphenyl)-3-tert-butyl-1-methyl-1H-pyrazole-5-carboxamide] | 959 |  | 451 | 224 |
| Cc1ccc(NC(=O)c2ccncc2C(C)(C)C)cc1Nc1nc2ccccc2n1-c1cc(N)ncn1 [N-(3-(1-(6-aminopyrimidin-4-yl)-1H-benzo[d]imidazol-2-ylamino)-4-methylphenyl)-3-tert-butylisonicotinamide] | 56 |  |  |  |
| Cc1ccc(NC(=O)c2cccc(C(F)(F)F)c2)cc1Nc1nc2ccccc2n1-c1cc(Cl)ncn1 [N-(3-(1-(6-chloropyrimidin-4-yl)-1H-benzo[d]imidazol-2-ylamino)-4-methylphenyl)-3-(trifluoromethyl)benzamide] |  | 3300 | 9070 | 2700 |
| Cc1ccc(NC(=O)c2cccc(C(F)(F)F)c2)cc1Nc1nc2ccccc2n1-c1cc(NCCC2CCCN2)ncn1 (stereo unspecified) [N-(4-methyl-3-(1-(6-(2-(pyrrolidin-2-yl)ethylamino)pyrimidin-4-yl)-1H-benzo[d]imidazol-2-ylamino)phenyl)-3-(trifluoromethyl)benzamide] | 903 |  | 941 | 238 |
